Laboratory results published in patent US20240150293A1, “SPIROCYCLOHEXANE DERIVATIVES, PHARMACEUTICAL COMPOSITIONS CONTAINING THEM AND THEIR USES AS ANTI-APOPTOTIC INHIBITORS” (LES LABORATOIRES SERVIER, priority 2021, published 2024).
Where two headings read alike, the source gives them in different places.

How the values were obtained:
[1] = molecular target: Cy5-labelled Mcl1 (amino acids 171-321) C286S protein (UniProtKB Q07820) (Homo sapiens (Human), UniProt Q07820, C286S); test: Inhibition of Mcl-1 by the fluorescence quenching assay (Example A, Method B); assay type: binding
Chain of Cy5-labelled Mcl1 (amino acids 171-321) C286S protein (Q07820 171-321 C286S): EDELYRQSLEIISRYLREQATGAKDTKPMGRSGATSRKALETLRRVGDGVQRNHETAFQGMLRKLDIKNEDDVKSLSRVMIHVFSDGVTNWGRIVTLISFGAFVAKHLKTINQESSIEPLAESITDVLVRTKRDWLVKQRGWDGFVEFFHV
Method in brief: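 Cy5-labelled Mcl1 171-321 C286S (1 nM) quenched by TQ5WS-labelled PUMA peptide (10, 20 or 400 nM); displacement raises fluorescence (Ex 620/Em 680 nm). Buffer 10 mM HEPES, 150 mM NaCl, 0.05% Tween 20, pH 7.4, 5% DMSO; 2 h at room temperature, 11-point curves, IC50 converted to Ki (cKi/eKi).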

[2] = tested on: H929 multiple myeloma tumor line; test: In vitro cytotoxicity, MTT assay (Example B, Method A); assay type: cell-based; conditions: H929 cells, 48 hours exposure, read-out: C50
Description: The cytotoxicity studies were carried out on the H929 multiple myeloma tumor line.
The cells are distributed onto microplates and exposed to the test compounds for 48 hours. The cell viability is then quantified by a colorimetric assay, the Microculture Tetrazolium Assay (Carmichael et al, Cancer Res. 1987, 47, 939-942).
The results are expressed in C50 which means concentration corresponding to […] of effect/inhibition.

Ki [1]	Compound	IC50 ([2]; Homo sapiens, NCI-H929, 48 h)	IC50 [2]
2.55 nM	C[C@@H](COc1ccnc2ccsc12)C[C@H]1Cc2ccc(F)cc2[C@]12CC[C@@](Nc1cccc(Cl)c1)(C(=O)O)CC2 [Example 735, (1r,2′S,4S)-4-(3-chloroanilino)-6′-fluoro-2′-{(2R)-2-methyl-3-[(thieno[3,2-b]pyridin-7-yl)oxy]propyl}-2′,3′-dihydrospiro[cyclohexane-1,1′-indene]-4-carboxylic acid]	433 nM	
0.0988 nM	C[C@@H](COc1ccnc2c1[C@H](C)CCC2)C[C@H]1Cc2ccc(C=O)cc2[C@]12CC[C@@](Nc1cccc(Cl)c1)(C(=O)O)CC2 [Example 867, (1r,2′S,4S)-4-(3-chloroanilino)-6′-formyl-2′-[(2R)-2-methyl-3-{[(5R)-5-methyl-5,6,7,8-tetrahydroquinolin-4-yl]oxy}propyl]-2′,3′-dihydrospiro[cyclohexane-1,1′-indene]-4-carboxylic acid]	73 nM	
0.827 nM	C[C@@H](COc1ccnc2c1[C@H](C)CCC2)CC1Cc2c(Cl)cccc2[C@]12CC[C@@](Nc1cccc(Cl)c1)(C(=O)O)CC2 (single isomer, unassigned) [Example 740]		45.9 nM
2.1 nM	COCCOc1ccc2c(c1)[C@]1(CC[C@@](Nc3cccc(Cl)c3)(C(=O)O)CC1)[C@@H](C[C@@H](C)COc1ccnc3ccsc13)C2 [Example 730, (1r,2′S,4S)-4-(3-chloroanilino)-6′-(2-methoxyethoxy)-2′-{(2R)-2-methyl-3-[(thieno[3,2-b]pyridin-7-yl)oxy]propyl}-2′,3′-dihydrospiro[cyclohexane-1,1′-indene]-4-carboxylic acid]	210 nM	
34.2 nM	C[C@@H](COc1ccnc2c1[C@@H](C)CC[C@H]2C)C[C@H]1Cc2ccccc2[C@]12CC[C@@](Nc1cccc(Cl)c1)(C(=O)O)CC2 (single isomer, unassigned) [Example 658, (1r,2′S,4S)-4-(3-chloroanilino)-2′-[(2R)-3-{[(5R*,8S*)-5,8-dimethyl-5,6,7,8-tetrahydroquinolin-4-yl]oxy}-2-methylpropyl]-2′,3′-dihydrospiro[cyclohexane-1,1′-indene]-4-carboxylic acid]	879 nM	
7.36 nM	C[C@@H](CNc1ccnc2ccsc12)C[C@H]1Cc2ccccc2[C@]12CC[C@@](Nc1cccc(Cl)c1)(C(=O)O)CC2 [Example 627, (1r,2′S,4S)-4-(3-chloroanilino)-2′-{(2R)-2-methyl-3-[(thieno[3,2-b]pyridin-7-yl)amino]propyl}-2′,3′-dihydrospiro[cyclohexane-1,1′-indene]-4-carboxylic acid]	1330 nM	
2.3 nM	C[C@@H](COc1ccnc2c1[C@H](C)CCC2)C[C@@H]1Cc2ccc(F)cc2[C@]12CC[C@@](Nc1cccc(Cl)c1)(C(=O)O)CC2 [Example 766, (1r,2′R,4R)-4-(3-chloroanilino)-6′-fluoro-2′-[(2R)-2-methyl-3-{[(5R)-5-methyl-5,6,7,8-tetrahydroquinolin-4-yl]oxy}propyl]-2′,3′-dihydrospiro[cyclohexane-1,1′-indene]-4-carboxylic acid]	384 nM	
0.788 nM	C[C@@H](COc1ccnc2c1[C@H](C)CCC2)CC1Cc2c(Cl)c(F)ccc2[C@]12CC[C@@](Nc1cccc(Cl)c1)(C(=O)O)CC2 (single isomer, unassigned) [Example 747]		118 nM
28.7 nM	C[C@@H]1Cc2nccc(OC[C@H](C)C[C@H]3Cc4ccccc4[C@]34CC[C@@](Nc3cccc(Cl)c3)(C(=O)O)CC4)c2[C@@H](C)C1 [Example 666, (1r,2′S,4S)-4-(3-chloroanilino)-2′-[(2R)-3-{[(5S,7S)-5,7-dimethyl-5,6,7,8-tetrahydroquinolin-4-yl]oxy}-2-methylpropyl]-2′,3′-dihydrospiro[cyclohexane-1,1′-indene]-4-carboxylic acid]	1070 nM	
12.1 nM	C[C@@H](COc1ccnc2c1[C@@H](C)CCC2)C[C@H]1Cc2cccc(F)c2[C@]12CC[C@@](Nc1cccc(Cl)c1)(C(=O)O)CC2 [Example 762, (1r,2′S,4S)-4-(3-chloroanilino)-7′-fluoro-2′-[(2R)-2-methyl-3-{[(5S)-5-methyl-5,6,7,8-tetrahydroquinolin-4-yl]oxy}propyl]-2′,3′-dihydrospiro[cyclohexane-1,1′-indene]-4-carboxylic acid]	390 nM	
0.446 nM	C[C@@H](COc1ccnc2c1[C@H](C)CCC2)C[C@H]1Cc2ccccc2[C@]12CC[C@@](Nc1cccc(Br)c1)(C(=O)O)CC2 [Example 711, (1r,2′S,4S)-4-(3-bromoanilino)-2′-[(2R)-2-methyl-3-{[(5R)-5-methyl-5,6,7,8-tetrahydroquinolin-4-yl]oxy}propyl]-2′,3′-dihydrospiro[cyclohexane-1,1′-indene]-4-carboxylic acid]	59.8 nM	
44.1 nM	Cc1cc(Cl)cc(N[C@]2(C(=O)O)CC[C@]3(CC2)c2ccccc2C[C@@H]3C[C@@H](C)COc2ccnc3c2[C@H](C)CCC3)c1 [Example 710, (1r,2′S,4S)-4-(3-chloro-5-methylanilino)-2′-[(2R)-2-methyl-3-{[(5R)-5-methyl-5,6,7,8-tetrahydroquinolin-4-yl]oxy}propyl]-2′,3′-dihydrospiro[cyclohexane-1,1′-indene]-4-carboxylic acid]	3280 nM	
5.73 nM	C[C@@H](COc1ccnc2c1[C@@H](C)CC[C@H]2C)C[C@H]1Cc2ccccc2[C@]12CC[C@@](Nc1cccc(Cl)c1)(C(=O)O)CC2 (single isomer, unassigned) [Example 659, (1r,2′S,4S)-4-(3-chloroanilino)-2′-[(2R)-3-{[(5R*,8S*)-5,8-dimethyl-5,6,7,8-tetrahydroquinolin-4-yl]oxy}-2-methylpropyl]-2′,3′-dihydrospiro[cyclohexane-1,1′-indene]-4-carboxylic acid]		559 nM
4.34 nM	C[C@@H]1CCCc2nccc(OCC(CC3=Cc4ccccc4[C@]34CC[C@@](Nc3cccc(Cl)c3)(C(=O)O)CC4)c3ccccn3)c21 (stereo partly drawn) [Example 566, (1r,4R)-4-(3-chloroanilino)-2′-[3-{[(5R)-5-methyl-5,6,7,8-tetrahydroquinolin-4-yl]oxy}-2-(pyridin-2-yl)propyl]spiro[cyclohexane-1,1′-indene]-4-carboxylic acid]	721 nM	
0.172 nM	C[C@@H](COc1ccnc2c1[C@H](C)CCC2)C[C@@H]1Cc2cc3c(cc2[C@]12CC[C@@](Nc1cccc(Cl)c1)(C(=O)O)CC2)OCO3 [Example 841, (1r,4R,6′R)-4-(3-chloroanilino)-6′-[(2R)-2-methyl-3-{[(5R)-5-methyl-5,6,7,8-tetrahydroquinolin-4-yl]oxy}propyl]-6′,7′-dihydro-2′H-spiro[cyclohexane-1,5′-indeno[5,6-d][1,3]dioxole]-4-carboxylic acid]	76.6 nM	
3.42 nM	C[C@@H](COc1ccnc2c1[C@@H](C)CCC2)C[C@H]1Cc2cc(Cl)c(O)cc2[C@]12CC[C@@](Nc1cccc(Cl)c1)(C(=O)O)CC2 [Example 814, (1r,2′S,4S)-5′-chloro-4-(3-chloroanilino)-6′-hydroxy-2′-[(2R)-2-methyl-3-{[(5S)-5-methyl-5,6,7,8-tetrahydroquinolin-4-yl]oxy}propyl]-2′,3′-dihydrospiro[cyclohexane-1,1′-indene]-4-carboxylic acid]	135 nM	
32.3 nM	C[C@@H]1CCCc2nccc(OCC(CC3Cc4ccccc4[C@]34CC[C@@](Nc3cccc(Cl)c3)(C(=O)O)CC4)C(F)F)c21 (single isomer, unassigned) [Example 521]		986 nM
0.565 nM	CC[C@@H]1CCc2nccc(OC[C@H](C)C[C@H]3Cc4ccccc4[C@]34CC[C@@](Nc3cccc(Cl)c3)(C(=O)O)CC4)c21 [Example 612, (1r,2′S,4S)-4-(3-chloroanilino)-2′-[(2R)-3-{[(5R)-5-ethyl-6,7-dihydro-5H-cyclopenta[b]pyridin-4-yl]oxy}-2-methylpropyl]-2′,3′-dihydrospiro[cyclohexane-1,1′-indene]-4-carboxylic acid]	315 nM	
26.8 nM	CC1CCN(C)c2nccc(OC[C@H](C)C[C@H]3Cc4ccccc4[C@]34CC[C@@](Nc3cccc(Cl)c3)(C(=O)O)CC4)c21 (single isomer, unassigned) [Example 643]	1230 nM	
0.0699 nM	CC(=O)c1ccc2c(c1)[C@]1(CC[C@@](Nc3cccc(Cl)c3)(C(=O)O)CC1)[C@@H](C[C@@H](C)COc1ccnc3c1[C@H](C)CCC3)C2 [Example 858, (1r,2′S,4S)-6′-acetyl-4-(3-chloroanilino)-2′-[(2R)-2-methyl-3-{[(5R)-5-methyl-5,6,7,8-tetrahydroquinolin-4-yl]oxy}propyl]-2′,3′-dihydrospiro[cyclohexane-1,1′-indene]-4-carboxylic acid]	50.6 nM	
0.356 nM	C[C@@H](COc1ccnc2c1[C@H](C)CCC2)CC1Cc2c(Cl)c(F)ccc2[C@]12CC[C@@](Nc1cccc(Cl)c1)(C(=O)O)CC2 (single isomer, unassigned) [Example 746]		25.4 nM
8.89 nM	C[C@@H](COc1ccnc2c1[C@@H](C)CCC2)C[C@H]1Cc2ccc(O)cc2[C@]12CC[C@@](Nc1cccc(Cl)c1)(C(=O)O)CC2 [Example 780, (1r,2′S,4S)-4-(3-chloroanilino)-6′-hydroxy-2′-[(2R)-2-methyl-3-{[(5S)-5-methyl-5,6,7,8-tetrahydroquinolin-4-yl]oxy}propyl]-2′,3′-dihydrospiro[cyclohexane-1,1′-indene]-4-carboxylic acid]	641 nM	
